Experimental data published in ChEMBL document CHEMBL1150976, “The selectivity of protein kinase inhibitors: a further update” (Biochem J, 2007).

Key:
[1] = biological target: Mitogen-activated protein kinase 14 (Homo sapiens, UniProt Q16539); assay: Percentage p38alpha activity remaining in the presence of 25uM inhibitor
[2] = biological target: T1, Serine/threonine-protein kinase 3 (Homo sapiens) (UniProt Q13188); assay: Percentage MST2 activity remaining in the presence of 25uM inhibitor
T1 sequence (whole entry): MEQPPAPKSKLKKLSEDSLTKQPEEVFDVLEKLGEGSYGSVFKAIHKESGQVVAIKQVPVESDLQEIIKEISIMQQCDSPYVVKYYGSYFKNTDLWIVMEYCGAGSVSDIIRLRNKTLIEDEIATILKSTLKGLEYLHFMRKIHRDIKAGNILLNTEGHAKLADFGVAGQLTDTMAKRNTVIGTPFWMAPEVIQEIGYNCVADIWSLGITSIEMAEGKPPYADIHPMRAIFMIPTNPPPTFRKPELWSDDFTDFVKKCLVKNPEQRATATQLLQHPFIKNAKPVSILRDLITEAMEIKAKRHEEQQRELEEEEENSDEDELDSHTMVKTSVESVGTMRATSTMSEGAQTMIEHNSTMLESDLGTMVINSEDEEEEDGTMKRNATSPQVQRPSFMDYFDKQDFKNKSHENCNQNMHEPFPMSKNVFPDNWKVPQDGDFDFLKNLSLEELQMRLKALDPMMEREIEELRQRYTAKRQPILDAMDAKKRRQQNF

[3] = biological target: Calcium/calmodulin-dependent protein kinase type 1 (Homo sapiens) (UniProt Q14012); assay: Percentage CaMK1 activity remaining in the presence of 25uM inhibitor
Sequence of Calcium/calmodulin-dependent protein kinase type 1 (Homo sapiens) (Q14012 whole entry, looked up): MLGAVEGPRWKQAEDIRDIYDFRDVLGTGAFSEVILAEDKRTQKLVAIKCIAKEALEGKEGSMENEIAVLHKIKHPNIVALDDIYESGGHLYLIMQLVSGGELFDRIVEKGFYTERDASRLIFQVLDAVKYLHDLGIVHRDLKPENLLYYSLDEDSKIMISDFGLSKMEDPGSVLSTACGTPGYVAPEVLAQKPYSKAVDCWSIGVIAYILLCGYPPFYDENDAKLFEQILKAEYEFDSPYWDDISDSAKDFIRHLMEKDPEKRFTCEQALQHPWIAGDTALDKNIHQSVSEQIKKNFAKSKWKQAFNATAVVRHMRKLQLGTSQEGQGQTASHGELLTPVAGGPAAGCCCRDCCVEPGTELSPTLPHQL

[4] = biological target: T2, Aurora kinase C (Homo sapiens) (UniProt Q9UQB9); assay: Percentage Aurora C activity remaining in the presence of 25uM inhibitor
T2 sequence (whole entry): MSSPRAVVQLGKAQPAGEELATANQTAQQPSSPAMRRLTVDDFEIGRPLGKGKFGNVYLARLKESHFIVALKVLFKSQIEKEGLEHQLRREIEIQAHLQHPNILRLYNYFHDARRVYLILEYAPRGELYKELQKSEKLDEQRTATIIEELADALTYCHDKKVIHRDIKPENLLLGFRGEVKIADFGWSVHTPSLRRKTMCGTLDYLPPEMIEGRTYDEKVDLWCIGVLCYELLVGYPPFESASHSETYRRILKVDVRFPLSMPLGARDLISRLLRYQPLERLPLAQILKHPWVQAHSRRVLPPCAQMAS

[5] = biological target: Serine/threonine-protein kinase pim-1 (Homo sapiens, UniProt P11309); assay: Percentage PIM1 activity remaining in the presence of 25uM inhibitor; settings: filed as antagonist
Sequence of Serine/threonine-protein kinase pim-1 (P11309 whole entry, looked up): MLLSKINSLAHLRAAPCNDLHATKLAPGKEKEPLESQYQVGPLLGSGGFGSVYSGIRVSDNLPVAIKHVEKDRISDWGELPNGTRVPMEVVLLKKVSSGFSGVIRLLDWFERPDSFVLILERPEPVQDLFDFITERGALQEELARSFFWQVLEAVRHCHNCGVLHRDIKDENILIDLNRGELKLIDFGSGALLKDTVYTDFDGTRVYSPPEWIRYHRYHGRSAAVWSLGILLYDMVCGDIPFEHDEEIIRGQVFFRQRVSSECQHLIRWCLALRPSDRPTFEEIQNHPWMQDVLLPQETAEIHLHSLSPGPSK

[6] = biological target: Homeodomain-interacting protein kinase 3 (Homo sapiens) (UniProt Q9H422); assay: Percentage HIPK3 activity remaining in the presence of 25uM inhibitor
Sequence of Homeodomain-interacting protein kinase 3 (Homo sapiens) (Q9H422 whole entry, looked up): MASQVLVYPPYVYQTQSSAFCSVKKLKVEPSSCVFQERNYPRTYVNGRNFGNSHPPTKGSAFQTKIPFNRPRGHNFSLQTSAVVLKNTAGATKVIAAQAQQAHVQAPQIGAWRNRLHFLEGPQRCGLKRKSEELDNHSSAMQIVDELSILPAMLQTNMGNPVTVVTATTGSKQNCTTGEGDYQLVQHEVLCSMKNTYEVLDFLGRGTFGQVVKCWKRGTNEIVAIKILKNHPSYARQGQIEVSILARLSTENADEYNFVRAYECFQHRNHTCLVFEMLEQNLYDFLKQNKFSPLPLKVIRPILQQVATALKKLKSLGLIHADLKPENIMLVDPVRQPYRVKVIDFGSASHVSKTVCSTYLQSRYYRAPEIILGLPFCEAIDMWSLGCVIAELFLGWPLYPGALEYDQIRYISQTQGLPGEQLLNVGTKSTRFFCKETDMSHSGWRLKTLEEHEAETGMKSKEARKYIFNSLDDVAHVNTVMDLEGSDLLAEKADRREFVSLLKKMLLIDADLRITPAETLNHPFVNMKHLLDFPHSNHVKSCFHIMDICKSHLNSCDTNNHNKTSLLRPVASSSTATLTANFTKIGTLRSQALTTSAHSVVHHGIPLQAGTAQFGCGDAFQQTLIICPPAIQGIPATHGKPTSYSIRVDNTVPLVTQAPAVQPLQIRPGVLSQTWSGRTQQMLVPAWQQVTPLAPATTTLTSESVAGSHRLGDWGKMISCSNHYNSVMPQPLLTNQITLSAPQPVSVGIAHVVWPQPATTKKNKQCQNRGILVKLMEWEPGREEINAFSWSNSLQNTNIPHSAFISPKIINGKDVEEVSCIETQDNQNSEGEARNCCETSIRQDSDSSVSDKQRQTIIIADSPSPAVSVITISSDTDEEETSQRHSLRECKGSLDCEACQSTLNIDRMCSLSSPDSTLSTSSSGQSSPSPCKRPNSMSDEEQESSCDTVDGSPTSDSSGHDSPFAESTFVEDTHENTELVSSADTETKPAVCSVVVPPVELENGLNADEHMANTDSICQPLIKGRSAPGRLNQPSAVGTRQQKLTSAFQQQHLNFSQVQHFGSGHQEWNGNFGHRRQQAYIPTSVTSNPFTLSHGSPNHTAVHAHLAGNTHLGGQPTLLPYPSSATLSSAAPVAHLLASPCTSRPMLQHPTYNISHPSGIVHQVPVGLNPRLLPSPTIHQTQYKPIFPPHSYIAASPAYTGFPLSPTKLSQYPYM

[7] = biological target: T3, Protein kinase C zeta type (Homo sapiens) (UniProt Q05513); assay: Percentage PKCzeta activity remaining in the presence of 25uM inhibitor
T3 sequence (whole entry): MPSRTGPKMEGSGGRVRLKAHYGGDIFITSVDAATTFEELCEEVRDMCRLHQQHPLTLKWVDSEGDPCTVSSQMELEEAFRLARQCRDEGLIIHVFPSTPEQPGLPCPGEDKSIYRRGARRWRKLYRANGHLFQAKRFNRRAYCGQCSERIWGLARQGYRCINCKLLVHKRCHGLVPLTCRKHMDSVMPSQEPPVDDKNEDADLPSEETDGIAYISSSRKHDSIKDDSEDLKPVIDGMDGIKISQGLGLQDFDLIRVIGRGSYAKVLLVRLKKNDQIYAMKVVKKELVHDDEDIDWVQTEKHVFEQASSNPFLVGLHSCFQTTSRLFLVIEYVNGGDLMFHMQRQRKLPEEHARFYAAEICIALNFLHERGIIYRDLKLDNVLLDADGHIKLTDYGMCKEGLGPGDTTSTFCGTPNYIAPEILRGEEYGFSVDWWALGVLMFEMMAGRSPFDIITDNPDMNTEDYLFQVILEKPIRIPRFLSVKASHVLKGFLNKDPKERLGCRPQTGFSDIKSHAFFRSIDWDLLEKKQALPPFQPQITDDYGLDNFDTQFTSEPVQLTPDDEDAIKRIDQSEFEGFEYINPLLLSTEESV

[8] = biological target: T4, Mitogen-activated protein kinase 13 (Homo sapiens) (UniProt O15264); assay: Percentage p38delta activity remaining in the presence of 25uM inhibitor
T4 sequence (whole entry): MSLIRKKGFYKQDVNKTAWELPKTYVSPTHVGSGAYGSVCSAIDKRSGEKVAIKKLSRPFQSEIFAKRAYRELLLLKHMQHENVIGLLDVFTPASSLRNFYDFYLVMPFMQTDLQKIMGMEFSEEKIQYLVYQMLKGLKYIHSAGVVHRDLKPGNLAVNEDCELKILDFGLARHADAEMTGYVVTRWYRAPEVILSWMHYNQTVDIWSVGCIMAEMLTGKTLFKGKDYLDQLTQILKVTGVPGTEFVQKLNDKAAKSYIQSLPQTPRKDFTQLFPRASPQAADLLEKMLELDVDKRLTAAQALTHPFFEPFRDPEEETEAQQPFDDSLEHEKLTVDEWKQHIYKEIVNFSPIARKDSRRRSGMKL

[9] = biological target: Mitogen-activated protein kinase 11 (Homo sapiens) (UniProt Q15759); assay: Percentage p38beta activity remaining in the presence of 25uM inhibitor
Sequence of Mitogen-activated protein kinase 11 (Homo sapiens) (Q15759 whole entry): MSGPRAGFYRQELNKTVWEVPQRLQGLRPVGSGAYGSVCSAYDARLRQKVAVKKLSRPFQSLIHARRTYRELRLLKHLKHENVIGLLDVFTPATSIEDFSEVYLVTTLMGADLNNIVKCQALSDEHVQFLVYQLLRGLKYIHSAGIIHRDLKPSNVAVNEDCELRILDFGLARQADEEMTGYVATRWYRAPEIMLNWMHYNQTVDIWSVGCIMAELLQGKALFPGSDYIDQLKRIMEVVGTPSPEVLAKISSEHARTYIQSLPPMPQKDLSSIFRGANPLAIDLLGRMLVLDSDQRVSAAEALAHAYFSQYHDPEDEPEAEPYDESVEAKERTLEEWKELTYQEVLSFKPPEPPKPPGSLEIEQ

[10] = biological target: Proto-oncogene tyrosine-protein kinase Src (Gallus gallus) (UniProt P00523); assay: Percentage Src activity remaining in the presence of 25uM inhibitor
[11] = biological target: MAP kinase-activated protein kinase 3 (Homo sapiens) (UniProt Q16644); assay: Percentage MAPKAPK3 activity remaining in the presence of […]uM inhibitor; settings: at 25 µM
Sequence of MAP kinase-activated protein kinase 3 (Homo sapiens) (Q16644 whole entry, looked up): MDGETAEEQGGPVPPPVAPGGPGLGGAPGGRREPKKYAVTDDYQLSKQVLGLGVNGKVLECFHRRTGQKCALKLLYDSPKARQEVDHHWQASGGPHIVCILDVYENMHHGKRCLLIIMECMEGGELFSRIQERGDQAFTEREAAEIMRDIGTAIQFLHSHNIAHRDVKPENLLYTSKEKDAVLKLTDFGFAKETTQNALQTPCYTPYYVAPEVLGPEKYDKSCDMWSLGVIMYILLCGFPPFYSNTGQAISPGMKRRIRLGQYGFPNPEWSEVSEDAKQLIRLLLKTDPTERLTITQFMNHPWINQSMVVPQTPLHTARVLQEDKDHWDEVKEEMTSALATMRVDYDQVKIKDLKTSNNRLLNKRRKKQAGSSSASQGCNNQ

[12] = biological target: Mitogen-activated protein kinase 3 (Homo sapiens) (UniProt P27361); assay: Percentage ERK1 activity remaining in the presence of 25uM inhibitor
Sequence of Mitogen-activated protein kinase 3 (Homo sapiens) (P27361 whole entry): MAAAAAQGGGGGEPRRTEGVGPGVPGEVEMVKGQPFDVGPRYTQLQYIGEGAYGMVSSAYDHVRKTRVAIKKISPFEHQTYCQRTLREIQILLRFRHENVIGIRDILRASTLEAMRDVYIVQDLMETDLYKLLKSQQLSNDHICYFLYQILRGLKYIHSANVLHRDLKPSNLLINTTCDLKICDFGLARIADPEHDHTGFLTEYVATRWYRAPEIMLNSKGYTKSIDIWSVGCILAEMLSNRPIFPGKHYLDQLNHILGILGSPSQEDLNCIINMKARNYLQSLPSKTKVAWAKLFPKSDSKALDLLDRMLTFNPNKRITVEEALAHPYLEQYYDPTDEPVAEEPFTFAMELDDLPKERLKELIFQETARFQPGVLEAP

[13] = biological target: Dual specificity tyrosine-phosphorylation-regulated kinase 1A (Homo sapiens) (UniProt Q13627); assay: Percentage DYRK1A activity remaining in the presence of 25uM inhibitor
[14] = biological target: Glycogen synthase kinase-3 beta (Homo sapiens, UniProt P49841); assay: Percentage GSK3-beta activity remaining in the presence of 25uM inhibitor
Sequence of Glycogen synthase kinase-3 beta (P49841 whole entry, looked up): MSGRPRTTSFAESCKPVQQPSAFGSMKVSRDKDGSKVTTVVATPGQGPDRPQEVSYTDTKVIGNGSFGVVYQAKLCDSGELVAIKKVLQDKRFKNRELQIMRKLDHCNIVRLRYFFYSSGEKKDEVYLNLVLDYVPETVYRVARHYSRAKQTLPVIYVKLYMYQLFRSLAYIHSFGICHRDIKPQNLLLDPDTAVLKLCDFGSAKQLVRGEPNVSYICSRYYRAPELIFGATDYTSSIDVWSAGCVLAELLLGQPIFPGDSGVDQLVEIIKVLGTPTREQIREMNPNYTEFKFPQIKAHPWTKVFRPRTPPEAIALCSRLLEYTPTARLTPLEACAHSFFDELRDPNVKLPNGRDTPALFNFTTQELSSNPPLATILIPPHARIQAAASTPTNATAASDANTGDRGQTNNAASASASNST

[15] = biological target: Myosin light chain kinase, smooth muscle (Homo sapiens, UniProt Q15746); assay: Percentage SmMLCK activity remaining in the presence of 0.01uM inhibitor
[16] = biological target: SRSF protein kinase 1 (Homo sapiens) (UniProt Q96SB4); assay: Percentage SRPK1 activity remaining in the presence of 0.01uM inhibitor
Sequence of SRSF protein kinase 1 (Homo sapiens) (Q96SB4 whole entry): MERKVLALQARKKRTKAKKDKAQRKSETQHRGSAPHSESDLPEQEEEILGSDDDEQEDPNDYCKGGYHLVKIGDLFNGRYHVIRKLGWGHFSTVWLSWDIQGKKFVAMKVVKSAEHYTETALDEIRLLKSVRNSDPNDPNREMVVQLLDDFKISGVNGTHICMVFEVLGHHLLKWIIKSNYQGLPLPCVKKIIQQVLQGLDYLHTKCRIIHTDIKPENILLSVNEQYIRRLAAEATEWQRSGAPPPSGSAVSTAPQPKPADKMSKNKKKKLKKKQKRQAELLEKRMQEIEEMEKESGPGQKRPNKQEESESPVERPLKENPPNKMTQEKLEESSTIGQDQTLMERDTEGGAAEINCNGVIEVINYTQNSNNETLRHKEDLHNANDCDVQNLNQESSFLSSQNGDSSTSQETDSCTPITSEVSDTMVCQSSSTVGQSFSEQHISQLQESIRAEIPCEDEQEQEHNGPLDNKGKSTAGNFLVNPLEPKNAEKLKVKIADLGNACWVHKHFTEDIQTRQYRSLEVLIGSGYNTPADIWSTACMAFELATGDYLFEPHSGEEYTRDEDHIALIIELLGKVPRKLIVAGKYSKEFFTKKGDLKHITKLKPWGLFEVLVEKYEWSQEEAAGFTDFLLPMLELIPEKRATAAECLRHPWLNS

Sequence of Mitogen-activated protein kinase 14 (Q16539 whole entry): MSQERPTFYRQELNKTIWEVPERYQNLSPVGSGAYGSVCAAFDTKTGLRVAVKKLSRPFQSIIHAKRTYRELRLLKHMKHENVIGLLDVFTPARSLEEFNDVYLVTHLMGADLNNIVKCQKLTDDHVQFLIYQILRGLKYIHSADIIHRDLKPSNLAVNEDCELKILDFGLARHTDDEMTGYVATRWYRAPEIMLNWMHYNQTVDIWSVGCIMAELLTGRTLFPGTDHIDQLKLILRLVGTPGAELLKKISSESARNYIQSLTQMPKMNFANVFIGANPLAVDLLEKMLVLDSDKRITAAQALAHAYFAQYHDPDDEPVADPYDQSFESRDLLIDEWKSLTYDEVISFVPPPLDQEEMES

Activity ([13]; filed as antagonist) [%] | Structure (SMILES) | Activity [1] [%] | Activity [2] [%] | Activity [3] [%] | Activity [4] [%] | Activity [5] [%] | Activity [6] [%] | Activity [7] [%] | Activity [8] [%] | Activity [9] [%] | Activity [10] [%] | Activity [11] [%] | Activity [12] [%] | Activity [14] [%] | Activity [15] [%] | Activity [16] [%] | Activity [13] [%]
39 | NCCNS(=O)(=O)c1ccc(Cl)c2ccncc12 | 103 | 91 | 82 | 95 | 28 | 86 | 52 | 80 | 101 | 92 | 86 | 102 | 75 |  |  | 
 | O=C(NCCCNc1nc(Nc2cccc(NC(=O)N3CCCC3)c2)ncc1I)c1cccs1 |  |  |  |  |  |  |  |  |  |  |  |  |  | 110 | 99 | 
 | COc1cc(OC)c(/C=C2/C(=O)Nc3ccccc32)c(OC)c1 | 92 | 70 | 55 | 94 | 43 | 95 | 80 | 91 | 97 | 70 | 94 | 91 | 74 |  |  | 73
 | CN[C@@H]1C[C@H]2O[C@@](C)([C@@H]1OC)n1c3ccccc3c3c4c(c5c6ccccc6n2c5c31)C(=O)N[C@H]4O (stereo in doubt) |  |  |  |  |  |  |  |  |  |  |  |  |  | 83 |  | 
 | Cc1n[nH]c2ccc(-c3cncc(OC[C@@H](N)Cc4c[nH]c5ccccc45)c3)cc12 |  |  |  |  |  |  |  |  |  |  |  |  |  |  | 92 | 
